Reference: publication PMC5218480 (PLoS ONE, 2017)

Tested on: MV-4-11 cells
Experiment: Gene expression microarray analysis (Affymetrix PrimeView) and GSEA
Type: cell-based, human
Parameters: RFU PODN (11730768_x_at) / Fold change /veh PODN (11730768_x_at) / RFU LINC00158 (11744669_a_at) / Fold change /veh LINC00158 (11744669_a_at) / RFU DUSP10 (11751237_a_at) / Fold change /veh DUSP10 (11751237_a_at) / RFU ID3 (11757404_x_at) / Fold change /veh ID3 (11757404_x_at) / RFU PLEKHG5 (11737974_s_at) / Fold change /veh PLEKHG5 (11737974_s_at) / RFU LRRC4B (11730491_at) / Fold change /veh LRRC4B (11730491_at) / RFU GIMAP4 (11747438_a_at) / Fold change /veh GIMAP4 (11747438_a_at) / RFU KRT8 (11758183_x_at) / Fold change /veh KRT8 (11758183_x_at) / RFU CNN1 (11734310_a_at) / Fold change /veh CNN1 (11734310_a_at) / RFU VPS37D (11726825_at) / Fold change /veh VPS37D (11726825_at) / RFU C10orf10 (11716522_x_at) / Fold change /veh C10orf10 (11716522_x_at) / RFU KIR2DL2 /// KIR2DL4 /// KIR2DL5A /// KIR2DL5B /// KIR2DS1 /// KIR2DS2 /// KIR2DS3 /// KIR2DS4 /// KIR3DL3 /// KIR3DL3 /// KIR3DS1 (11738374_at) / Fold change /veh KIR2DL2 /// KIR2DL4 /// KIR2DL5A /// KIR2DL5B /// KIR2DS1 /// KIR2DS2 /// KIR2DS3 /// KIR2DS4 /// KIR3DL3 /// KIR3DL3 /// KIR3DS1 (11738374_at) / RFU C1QL1 (11718748_at) / Fold change /veh C1QL1 (11718748_at) / RFU TMPRSS4 (11747572_a_at) / Fold change /veh TMPRSS4 (11747572_a_at) / RFU HAMP (11756126_x_at) / Fold change /veh HAMP (11756126_x_at) / RFU RNFT2 (11725882_a_at) / Fold change /veh RNFT2 (11725882_a_at) / RFU NR4A2 (11747474_a_at) / Fold change /veh NR4A2 (11747474_a_at) / RFU ABCC12 (11746883_a_at) / Fold change /veh ABCC12 (11746883_a_at) / RFU TMEM136 (11760407_x_at) / Fold change /veh TMEM136 (11760407_x_at) / RFU CLDN22 /// WWC2 (11732394_at) / Fold change /veh CLDN22 /// WWC2 (11732394_at) / RFU HLA-DPB1 (11760878_x_at) / Fold change /veh HLA-DPB1 (11760878_x_at) / RFU SPINT1 (11716480_a_at) / Fold change /veh SPINT1 (11716480_a_at) / RFU GAP43 (11754022_s_at) / Fold change /veh GAP43 (11754022_s_at) / RFU A4GNT (11735810_at) / Fold change /veh A4GNT (11735810_at) / RFU PRB3 (11715151_x_at) / Fold change /veh PRB3 (11715151_x_at) / RFU TUBB4B (11761932_at) / Fold change /veh TUBB4B (11761932_at) / RFU CAPN14 (11732068_a_at) / Fold change /veh CAPN14 (11732068_a_at) / RFU TMCC2 (11721928_a_at) / Fold change /veh TMCC2 (11721928_a_at) / RFU IRGQ (11745062_a_at) / Fold change /veh IRGQ (11745062_a_at) / RFU FAM174B (11720279_a_at) / Fold change /veh FAM174B (11720279_a_at) / RFU TMPRSS4 (11748680_a_at) / Fold change /veh TMPRSS4 (11748680_a_at) / RFU FAM212B (11763350_a_at) / Fold change /veh FAM212B (11763350_a_at) / RFU PLEKHG5 (11743358_a_at) / Fold change /veh PLEKHG5 (11743358_a_at) / RFU ZSCAN30 (11745921_a_at) / Fold change /veh ZSCAN30 (11745921_a_at) / RFU CMKLR1 (11741424_a_at) / Fold change /veh CMKLR1 (11741424_a_at) / RFU LOC101060620 /// MAPK8IP1 (11723275_at) / Fold change /veh LOC101060620 /// MAPK8IP1 (11723275_at) / RFU SPTSSB (11747773_x_at) / Fold change /veh SPTSSB (11747773_x_at) / RFU PRSS12 (11739890_at) / Fold change /veh PRSS12 (11739890_at) / RFU BIN1 (11741810_x_at) / Fold change /veh BIN1 (11741810_x_at) / RFU WNT11 (11732464_a_at) / Fold change /veh WNT11 (11732464_a_at) / RFU C10orf10 (11716521_a_at) / Fold change /veh C10orf10 (11716521_a_at) / RFU C5orf56 (11738089_at) / Fold change /veh C5orf56 (11738089_at) / RFU CYB561 (11721691_x_at) / Fold change /veh CYB561 (11721691_x_at) / RFU ANKRD19P (11752326_a_at) / Fold change /veh ANKRD19P (11752326_a_at) / RFU OR2T12 /// OR2T33 /// OR2T8 (11738714_s_at) / Fold change /veh OR2T12 /// OR2T33 /// OR2T8 (11738714_s_at) / RFU VCAN (11748164_a_at) / Fold change /veh VCAN (11748164_a_at) / RFU JSRP1 (11732532_at) / Fold change /veh JSRP1 (11732532_at) / RFU KRTAP10-11 (11738290_x_at) / Fold change /veh KRTAP10-11 (11738290_x_at) / RFU MYO3A (11730013_a_at) / Fold change /veh MYO3A (11730013_a_at) / RFU EBF3 (11725865_a_at) / Fold change /veh EBF3 (11725865_a_at) / RFU CAMK2N1 (11719241_x_at) / Fold change /veh CAMK2N1 (11719241_x_at) / RFU C5orf56 (11738088_a_at) / Fold change /veh C5orf56 (11738088_a_at) / RFU OLFML3 (11715873_a_at) / Fold change /veh OLFML3 (11715873_a_at) / RFU LOC100653217 /// NTM (11731650_a_at) / Fold change /veh LOC100653217 /// NTM (11731650_a_at) / RFU MAPK11 (11762145_a_at) / Fold change /veh MAPK11 (11762145_a_at) / RFU FIZ1 (11724087_x_at) / Fold change /veh FIZ1 (11724087_x_at) / RFU OASL (11726364_x_at) / Fold change /veh OASL (11726364_x_at) / RFU SOX15 (11748057_x_at) / Fold change /veh SOX15 (11748057_x_at) / RFU CD79A (11719716_a_at) / Fold change /veh CD79A (11719716_a_at) / RFU HIST1H1D (11736915_at) / Fold change /veh HIST1H1D (11736915_at) / RFU CASKIN2 (11723855_a_at) / Fold change /veh CASKIN2 (11723855_a_at) / RFU LOC730098 (11760151_x_at) / Fold change /veh LOC730098 (11760151_x_at) / RFU OR4N2 (11742367_at) / Fold change /veh OR4N2 (11742367_at) / RFU PRRT2 (11749266_a_at) / Fold change /veh PRRT2 (11749266_a_at) / RFU SNX32 (11753110_a_at) / Fold change /veh SNX32 (11753110_a_at) / RFU CDHR5 (11726645_a_at) / Fold change /veh CDHR5 (11726645_a_at) / RFU RCAN1 (11760418_a_at) / Fold change /veh RCAN1 (11760418_a_at) / RFU FAM167A (11723789_a_at) / Fold change /veh FAM167A (11723789_a_at) / RFU FAM26E (11764081_at) / Fold change /veh FAM26E (11764081_at) / RFU ISYNA1 (11749810_s_at) / Fold change /veh ISYNA1 (11749810_s_at) / RFU ACY1 (11761880_at) / Fold change /veh ACY1 (11761880_at) / RFU 11764098_at / Fold change /veh 11764098_at / RFU SAMD14 (11745864_x_at) / Fold change /veh SAMD14 (11745864_x_at) / RFU NPB (11741838_a_at) / Fold change /veh NPB (11741838_a_at) / RFU TMPRSS6 (11731388_a_at) / Fold change /veh TMPRSS6 (11731388_a_at) / RFU KRTAP10-2 (11738614_at) / Fold change /veh KRTAP10-2 (11738614_at) / RFU ARHGAP8 /// PRR5-ARHGAP8 (11727945_x_at) / Fold change /veh ARHGAP8 /// PRR5-ARHGAP8 (11727945_x_at) / RFU KRTAP5-7 /// NADSYN1 (11734609_at) / Fold change /veh KRTAP5-7 /// NADSYN1 (11734609_at) / RFU RASL12 (11751679_a_at) / Fold change /veh RASL12 (11751679_a_at) / RFU CDKN2B (11736163_a_at) / Fold change /veh CDKN2B (11736163_a_at) / RFU PRF1 (11729649_at) / Fold change /veh PRF1 (11729649_at) / RFU, ZNF638 /// ZNF638-IT1 / Fold change vs veh, ZNF638 /// ZNF638-IT1 / RFU, PANK3 / Fold change vs veh, PANK3 / RFU, SH3YL1 / Fold change vs veh, SH3YL1 / RFU, ZEB2 / Fold change vs veh, ZEB2 / RFU, NRIP1 / Fold change vs veh, NRIP1 / RFU, PTTG1IP / Fold change vs veh, PTTG1IP / RFU, CAPN2 / Fold change vs veh, CAPN2 / RFU, MED14 / Fold change vs veh, MED14 / RFU, SNORA58 / Fold change vs veh, SNORA58 / RFU, C1orf63 / Fold change vs veh, C1orf63 / RFU, LRRFIP1 / Fold change vs veh, LRRFIP1 / RFU, NDUFAF7 / Fold change vs veh, NDUFAF7 / RFU, SLC12A2 / Fold change vs veh, SLC12A2 / RFU, IBTK / Fold change vs veh, IBTK / RFU, ESF1 / Fold change vs veh, ESF1 / Fold change vs veh, TMEM50B / RFU, TAOK1 / Fold change vs veh, TAOK1 / RFU, ACBD3 / Fold change vs veh, ACBD3 / RFU, TMA16 / Fold change vs veh, TMA16 / RFU, RWDD3 / Fold change vs veh, RWDD3 / RFU, BCAT1 / Fold change vs veh, BCAT1 / RFU, EDEM3 / Fold change vs veh, EDEM3 / RFU, TMEM33 / Fold change vs veh, TMEM33 / RFU, WDR75 / Fold change vs veh, WDR75 / RFU, AHCTF1 / Fold change vs veh, AHCTF1 / RFU, TFRC / Fold change vs veh, TFRC / RFU, ZDHHC17 / Fold change vs veh, ZDHHC17 / RFU, NOM1 / Fold change vs veh, NOM1 / RFU, ARL8B / Fold change vs veh, ARL8B / RFU, ZBTB11 / Fold change vs veh, ZBTB11 / RFU, TAMM41 / Fold change vs veh, TAMM41 / RFU, KIAA1704 /// LOC100996395 / Fold change vs veh, KIAA1704 /// LOC100996395 / RFU, ING1 / Fold change vs veh, ING1 / RFU, TRMT61B / Fold change vs veh, TRMT61B / RFU, FUBP3 / Fold change vs veh, FUBP3 / RFU, TP53 / Fold change vs veh, TP53 / RFU, TNKS2 / Fold change vs veh, TNKS2 / RFU, ZFP14 / Fold change vs veh, ZFP14 / RFU, ACTR2 / Fold change vs veh, ACTR2 / RFU, PPP3R1 / Fold change vs veh, PPP3R1 / RFU, PIK3R1 / Fold change vs veh, PIK3R1 / RFU, HNRNPA1 / Fold change vs veh, HNRNPA1 / RFU, RNF170 / Fold change vs veh, RNF170 / RFU, ZNF28 / Fold change vs veh, ZNF28 / RFU, RNGTT / Fold change vs veh, RNGTT / RFU, OGT / Fold change vs veh, OGT / RFU, BRD1 / Fold change vs veh, BRD1 / RFU, MARS / Fold change vs veh, MARS / RFU, ZNF655 / Fold change vs veh, ZNF655 / RFU, FAHD1 / Fold change vs veh, FAHD1 / RFU, BDP1 / Fold change vs veh, BDP1 / RFU, LRRCC1 / Fold change vs veh, LRRCC1 / RFU, ARID1A / Fold change vs veh, ARID1A / RFU, ZNF146 / Fold change vs veh, ZNF146 / RFU, ZNF330 / Fold change vs veh, ZNF330 / RFU, GPN3 / Fold change vs veh, GPN3 / RFU, C9orf123 / Fold change vs veh, C9orf123 / RFU, N4BP2L2 / Fold change vs veh, N4BP2L2 / RFU, ARFIP1 / Fold change vs veh, ARFIP1 / RFU, FAM179B / Fold change vs veh, FAM179B / RFU, BCL10 / Fold change vs veh, BCL10 / RFU, UHRF1BP1L / Fold change vs veh, UHRF1BP1L / RFU, BET1 / Fold change vs veh, BET1 / RFU, CNOT2 / Fold change vs veh, CNOT2 / RFU, ZNF268 / Fold change vs veh, ZNF268 / Fold change vs veh, ZNF507 / RFU, DGCR2 / Fold change vs veh, DGCR2 / RFU, WDSUB1 / Fold change vs veh, WDSUB1 / Fold change vs veh, HSP90B1 /// MIR3652 / RFU, ADSS / Fold change vs veh, ADSS / RFU, GK / Fold change vs veh, GK / RFU, ZNF148 / Fold change vs veh, ZNF148 / RFU, TAF9 / Fold change vs veh, TAF9 / RFU, SLC1A5 / Fold change vs veh, SLC1A5 / RFU, SLMO2 / Fold change vs veh, SLMO2 / RFU, ABCC4 / Fold change vs veh, ABCC4 / RFU, LOC101060439 /// RAP1B / Fold change vs veh, LOC101060439 /// RAP1B / RFU, RFX7 / Fold change vs veh, RFX7 / RFU, GTPBP10 / Fold change vs veh, GTPBP10 / RFU, CNEP1R1 / Fold change vs veh, CNEP1R1 / RFU, BIVM-ERCC5 /// ERCC5 / Fold change vs veh, BIVM-ERCC5 /// ERCC5 / RFU, ILF3 / Fold change vs veh, ILF3 / RFU 11762660_at / Fold change /veh 11762660_at / RFU VCAN (11757783_s_at) / Fold change /veh VCAN (11757783_s_at) / RFU DDX43 (11728927_at) / Fold change /veh DDX43 (11728927_at) / RFU KRT8 (11758188_x_at) / Fold change /veh KRT8 (11758188_x_at) / RFU NKD1 (11759106_at) / Fold change /veh NKD1 (11759106_at) / RFU SRD5A1 (11742802_a_at) / Fold change /veh SRD5A1 (11742802_a_at) / RFU TPSAB1 /// TPSB2 (11721975_s_at) / Fold change /veh TPSAB1 /// TPSB2 (11721975_s_at) / RFU GSTM3 (11746129_a_at) / Fold change /veh GSTM3 (11746129_a_at) / RFU IL23R (11737362_x_at) / Fold change /veh IL23R (11737362_x_at) / RFU TMEM51 (11727254_a_at) / Fold change /veh TMEM51 (11727254_a_at) / RFU PIWIL2 (11732686_x_at) / Fold change /veh PIWIL2 (11732686_x_at) / RFU ORM1 (11744905_x_at) / Fold change /veh ORM1 (11744905_x_at) / RFU CCDC152 (11743942_at) / Fold change /veh CCDC152 (11743942_at) / RFU ECM1 (11717891_a_at) / Fold change /veh ECM1 (11717891_a_at) / RFU IL23R (11748794_a_at) / Fold change /veh IL23R (11748794_a_at) / RFU TNFAIP8L3 (11732012_x_at) / Fold change /veh TNFAIP8L3 (11732012_x_at) / RFU MBOAT4 (11741988_at) / Fold change /veh MBOAT4 (11741988_at) / RFU 11764193_at / Fold change /veh 11764193_at / RFU TMEM53 (11763286_at) / Fold change /veh TMEM53 (11763286_at) / RFU MAGEB2 (11727129_at) / Fold change /veh MAGEB2 (11727129_at) / RFU TMEM200A (11744735_a_at) / Fold change /veh TMEM200A (11744735_a_at) / RFU CCDC152 (11751479_a_at) / Fold change /veh CCDC152 (11751479_a_at) / RFU FAM211A (11726209_a_at) / Fold change /veh FAM211A (11726209_a_at) / RFU RGS16 (11746705_a_at) / Fold change /veh RGS16 (11746705_a_at) / RFU VCAN (11755009_s_at) / Fold change /veh VCAN (11755009_s_at) / RFU RHOB (11743442_s_at) / Fold change /veh RHOB (11743442_s_at) / RFU RGS16 (11720943_a_at) / Fold change /veh RGS16 (11720943_a_at) / RFU RGS16 (11720944_at) / Fold change /veh RGS16 (11720944_at) / RFU, VPS4B / Fold change vs veh, VPS4B / RFU, CREB1 / Fold change vs veh, CREB1 / RFU, DNAJC13 / Fold change vs veh, DNAJC13 / RFU, GNAQ / Fold change vs veh, GNAQ / RFU, CDK5R1 / Fold change vs veh, CDK5R1 / RFU, ZRANB3 / Fold change vs veh, ZRANB3 / RFU, CUL4A / Fold change vs veh, CUL4A / RFU, CCNY / Fold change vs veh, CCNY / RFU, UFL1 / Fold change vs veh, UFL1 / RFU, COG3 / Fold change vs veh, COG3 / RFU, DIAPH2 / Fold change vs veh, DIAPH2 / RFU, SKA2 / Fold change vs veh, SKA2 / RFU, AFF3 / Fold change vs veh, AFF3 / RFU, LMF1 / Fold change vs veh, LMF1 / RFU, IPO11 / Fold change vs veh, IPO11 / RFU, DFFB / Fold change vs veh, DFFB / RFU, FOXP1 / Fold change vs veh, FOXP1 / RFU, CARD8 / Fold change vs veh, CARD8 / RFU, STRN3 / Fold change vs veh, STRN3 / RFU, ADK / Fold change vs veh, ADK / RFU, RASSF2 / Fold change vs veh, RASSF2 / RFU, WIPF1 / Fold change vs veh, WIPF1 / RFU, LARP1B / Fold change vs veh, LARP1B / RFU, RASA1 / Fold change vs veh, RASA1 / RFU, RB1 / Fold change vs veh, RB1 / RFU, PPFIA1 / Fold change vs veh, PPFIA1 / RFU, MAT2A / Fold change vs veh, MAT2A / RFU, CCT5 / Fold change vs veh, CCT5 / RFU, WDR92 / Fold change vs veh, WDR92 / RFU, CUX1 / Fold change vs veh, CUX1 / RFU, TTC7A / Fold change vs veh, TTC7A / RFU, TMEM135 / Fold change vs veh, TMEM135 / RFU, DEPTOR / Fold change vs veh, DEPTOR / RFU, CPM / Fold change vs veh, CPM / RFU, DNAJB6 / Fold change vs veh, DNAJB6 / RFU, CACNA2D3 / Fold change vs veh, CACNA2D3 / RFU, DTX4 / Fold change vs veh, DTX4 / RFU, TFCP2 / Fold change vs veh, TFCP2 / RFU, GMCL1 /// GMCL1P1 / Fold change vs veh, GMCL1 /// GMCL1P1 / RFU, AEBP2 / Fold change vs veh, AEBP2 / RFU, SNHG1 /// SNORD22 /// SNORD25 /// SNORD26 /// SNORD27 /// SNORD28 /// SNORD29 /// SNORD31 / Fold change vs veh, SNHG1 /// SNORD22 /// SNORD25 /// SNORD26 /// SNORD27 /// SNORD28 /// SNORD29 /// SNORD31 / Fold change (Aza/veh), C12orf56 (ProbeSet 11735607_a_at) / Fold change (ACY-1035/veh), C12orf56 (ProbeSet 11735607_a_at) / Fold change (Aza/veh), FGFR1OP (ProbeSet 11751329_s_at) / Fold change (ACY-1035/veh), FGFR1OP (ProbeSet 11751329_s_at) / Fold change (Aza/veh), VPS36 (ProbeSet 11739960_a_at) / Fold change (ACY-1035/veh), VPS36 (ProbeSet 11739960_a_at) / RFU SYPL1 (11715823_x_at) / Fold change /veh SYPL1 (11715823_x_at) / RFU IGFBP7 (11715501_s_at) / Fold change /veh IGFBP7 (11715501_s_at) / RFU REEP3 (11722064_at) / Fold change /veh REEP3 (11722064_at) / RFU IGLL1 (11728026_x_at) / Fold change /veh IGLL1 (11728026_x_at): dose or concentration left out as unconfirmed
Conditions: ProbeSet 11715478_a_at; LIST B

Nc1ccc(-c2cccs2)cc1NC(=O)c1ccc2c(c1)cc(C1CC1)n2CCN1CCOCC1 [ACY-1035]
Fold change vs veh, TFRC: 0.87
